# Reference: US20240092784A1, “CONDENSED HETEROCYCLIC COMPOUND” (NISSAN CHEMICAL CORPORATION, priority 2020, published 2024)
# Target: human SPR (Homo sapiens (Human), UniProt P35270)
# Test: Evaluation Example 2: Measurement of human SPR inhibitory activity (seven concentrations, sepiapterin absorbance at 420 nm)
# Format: biochemical
# Settings: Evaluation Example 2, seven concentrations 0.14 nM to 100 nM, 240 minutes at room temperature, read-out: IC50
# Summary of the method: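 His-tagged full-length human SPR (1-261) was expressed in E. coli and the tag removed. Enzyme at 150 ng/mL in 100 mM Tris-HCl pH 7.5/0.01% BSA was mixed with compound (0.14–100 nM, seven points), 120 μM sepiapterin and 160 μM NADPH, both as added-solution concentrations. After 240 min at room temperature, remaining sepiapterin was read at 420 nm to give percent inhibition.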
# human SPR, sequence (P35270 whole entry): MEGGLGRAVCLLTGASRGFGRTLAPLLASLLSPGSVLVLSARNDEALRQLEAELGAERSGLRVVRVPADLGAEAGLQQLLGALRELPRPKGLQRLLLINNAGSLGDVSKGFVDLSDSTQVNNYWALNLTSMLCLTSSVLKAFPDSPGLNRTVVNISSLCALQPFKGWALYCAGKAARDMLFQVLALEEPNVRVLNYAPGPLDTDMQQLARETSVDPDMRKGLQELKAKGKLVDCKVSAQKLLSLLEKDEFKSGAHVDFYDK
row,SMILES,IC50
1,"CC(C)Cn1c(=O)c(C(=O)N[C@@H](C)C(F)(F)F)c(O)n2ncc(/C=C/C(=O)N3CCOCC3)c12 [compound 545, (S,E)-7-Hydroxy-4-isobutyl-3-(3-morpholino-3-oxoprop-1-en-1-yl)-5-oxo-N-(1,1,1-trifluoropropan-2-yl)-4,5-dihydropyrazolo[1,5-a]pyrimidine-6-carboxamide]",0.66 nM
2,"CC(C)(C)Cn1c(=O)c(C(=O)NC2CC2)c(O)n2nc(Nc3ncco3)cc12 [Synthesis Example 361, N-Cyclopropyl-7-hydroxy-4-neopentyl-2-(oxazol-2-ylamino)-5-oxo-4,5-dihydropyrazolo[1,5-a]pyrimidine-6-carboxamide]",1.42 nM
3,"CC(C)Cn1c(=O)c(C(=O)NC2CC2)c(O)n2ncc(/C=C/C(=O)N3CCC[C@@H]3C(N)=O)c12 [compound 487, (R,E)-3-(3-(2-Carbamoylpyrrolidin-1-yl)-3-oxoprop-1-en-1-yl)-N-cyclopropyl-7-hydroxy-4-isobutyl-5-oxo-4,5-dihydropyrazolo[1,5-a]pyrimidine-6-carboxamide]",0.97 nM
4,"Cc1nn2c(O)c(C(=O)NC3CC3)c(=O)n(CC(C)C)c2c1/C=C/C(=O)N1CCOc2ncccc21 [Synthesis Example 676, (E)-N-Cyclopropyl-3-(3-(2,3-dihydro-1H-pyrido[2,3-b][1,4]oxazin-1-yl)-3-oxoprop-1-en-1-yl)-7-hydroxy-4-isobutyl-2-methyl-5-oxo-4,5-dihydropyrazolo[1,5-a]pyrimidine-6-carboxamide]",0.91 nM
5,"CC(C)(C)Cn1c(=O)c(C(=O)NC2CC2)c(O)n2nc(Nc3ccnc(C#N)n3)cc12 [Synthesis Example 325, 2-((2-Cyanopyrimidin-4-yl)amino)-N-cyclopropyl-7-hydroxy-4-neopentyl-5-oxo-4,5-dihydropyrazolo[1,5-a]pyrimidine-6-carboxamide]",1.45 nM
6,"CC(C)Cn1c(=O)c(C(=O)NC2CC2)c(O)n2ncc(/C=C/C(=O)N3CCC(C)(O)CC3)c12 [compound 467, (E)-N-Cyclopropyl-7-hydroxy-3-(3-(4-hydroxy-4-methylpiperidin-1-yl)-3-oxoprop-1-en-1-yl)-4-isobutyl-5-oxo-4,5-dihydropyrazolo[1,5-a]pyrimidine-6-carboxamide]",0.79 nM
7,"CC(C)Cn1c(=O)c(C(=O)NC2CC2)c(O)n2ncc(/C=C/C(=O)N3CCC[C@H]3C(=O)N(C)C)c12 [compound 587, (S,E)-N-Cyclopropyl-3-(3-(2-(dimethylcarbamoyl)pyrrolidin-1-yl)-3-oxoprop-1-en-1-yl)-7-hydroxy-4-isobutyl-5-oxo-4,5-dihydropyrazolo[1,5-a]pyrimidine-6-carboxamide]",1.37 nM
8,"Cc1cc(Nc2cc3n(CC(C)(C)C)c(=O)c(C(=O)NC4CC4)c(O)n3n2)ncn1 [Synthesis Example 339, N-Cyclopropyl-7-hydroxy-2-((6-methylpyrimidin-4-yl)amino)-4-neopentyl-5-oxo-4,5-dihydropyrazolo[1,5-a]pyrimidine-6-carboxamide]",4.57 nM
9,"CC(Cn1c(=O)c(C(=O)NC2CC2)c(O)n2ncc(/C=C/C(=O)N3CCOCC3)c12)C(F)(F)F (single isomer, unassigned) [Synthesis Example 389, (E)-N-Cyclopropyl-7-hydroxy-3-(3-morpholino-3-oxoprop-1-en-1-yl)-5-oxo-4-(3,3,3-trifluoro-2-methylpropyl)-4,5-dihydropyrazolo[1,5-a]pyrimidine-6-carboxamide]",0.95 nM
10,"CC(C)(C)Cn1c(=O)c(C(=O)NC2CC2)c(O)n2nc(NC3CCCCC3)cc12 [Synthesis Example 343, 2-(Cyclohexylamino)-N-cyclopropyl-7-hydroxy-4-neopentyl-5-oxo-4,5-dihydropyrazolo[1,5-a]pyrimidine-6-carboxamide]",4.71 nM
11,"Cc1nccc(Nc2cc3n(CC(C)(C)C)c(=O)c(C(=O)NC4CC4)c(O)n3n2)n1 [Synthesis Example 334, N-Cyclopropyl-7-hydroxy-2-((2-methylpyrimidin-4-yl)amino)-4-neopentyl-5-oxo-4,5-dihydropyrazolo[1,5-a]pyrimidine-6-carboxamide]",1 nM
12,"C=Cc1c(N)nn2c(O)c(C(=O)NC3CC3)c(=O)n(CC(C)C)c12 [Synthesis Example 435, 2-Amino-N-cyclopropyl-7-hydroxy-4-isobutyl-5-oxo-3-vinyl-4,5-dihydropyrazolo[1,5-a]pyrimidine-6-carboxamide]",1.46 nM
13,"CC(C)Cn1c(=O)c(C(=O)NC2CC2)c(O)n2ncc(/C=C/c3ccc(C(F)(F)F)nc3)c12 [Synthesis Example 248, (E)-N-Cyclopropyl-7-hydroxy-4-isobutyl-5-oxo-3-(2-(6-(trifluoromethyl)pyridine-3-yl)vinyl)-4,5-dihydropyrazolo[1,5-a]pyrimidine-6-carboxamide]",1.89 nM
14,"CC(C)Cn1c(=O)c(C(=O)NC2CC2)c(O)n2ncc(C(=O)NCC3CCOCC3)c12 [Synthesis Example 221, N6-Cyclopropyl-7-hydroxy-4-isobutyl-5-oxo-N3-((tetrahydro-2H-pyran-4-yl)methyl)-4,5-dihydropyrazolo[1,5-a]pyrimidine-3,6-dicarboxamide]",0.64 nM
15,"CC(C)Cn1c(=O)c(C(=O)NC2CC2)c(O)n2ncc(/C=C/C(=O)N3[C@H](C)CCC[C@@H]3C)c12 [compound 597, N-Cyclopropyl-3-((E)-3-(cis-2,6-dimethylpiperidin-1-yl)-3-oxoprop-1-en-1-yl)-7-hydroxy-4-isobutyl-5-oxo-4,5-dihydropyrazolo[1,5-a]pyrimidine-6-carboxamide]",1.62 nM
16,"CC(C)Cn1c(=O)c(C(=O)NC2CC2)c(O)n2ncc(/C=C/C(=O)N3CCOC[C@H]3C)c12 [compound 494, (R,E)-N-Cyclopropyl-7-hydroxy-4-isobutyl-3-(3-(3-methylmorpholino)-3-oxoprop-1-en-1-yl)-5-oxo-4,5-dihydropyrazolo[1,5-a]pyrimidine-6-carboxamide]",0.73 nM
17,"CC(C)Cn1c(=O)c(C(=O)NCC(F)(F)F)c(O)n2nc(Nc3cnccn3)cc12 [Synthesis Example 348, 7-Hydroxy-4-isobutyl-5-oxo-2-(pyrazin-2-ylamino)-N-(2,2,2-trifluoroethyl)-4,5-dihydropyrazolo[1,5-a]pyrimidine-6-carboxamide]",2.84 nM
18,"CC(C)(C)Cn1c(=O)c(C(=O)NC2CC2)c(O)n2nc3nccnc3c12 [Synthesis Example 392, N-Cyclopropyl-7-hydroxy-10-neopentyl-9-oxo-9,10-dihydropyrazino[2′,3′:3,4]pyrazolo[1,5-a]pyrimidine-8-carboxamide]",1.5 nM
19,CC(C)Cn1c(=O)c(C(=O)NC2CC2)c(O)n2ncc(/C=C/C(=O)N3C[C@@H](C)O[C@H](C)C3)c12 [compound 491],0.82 nM
20,"Cc1nn2c(O)c(C(=O)NC3CC3)c(=O)n(CC(C)C)c2c1/C=C/C(=O)N1CCOCC1(C)C [Synthesis Example 656, (E)-N-Cyclopropyl-3-(3-(3,3-dimethylmorpholino)-3-oxoprop-1-en-1-yl)-7-hydroxy-4-isobutyl-2-methyl-5-oxo-4,5-dihydropyrazolo[1,5-a]pyrimidine-6-carboxamide]",1.15 nM

# Same assay, conditions: sepiapterin absorbance, Table 41, read-out: concentration at 50% inhibition of human SPR (IC50)
row,SMILES,IC50
1,"CC(C)Cn1c(=O)c(C(=O)NC2CC2)c(O)n2ncc(/C=C/C(=O)N3CCCC34CCN(C)CC4)c12 [Synthesis Example 736, (E)-N-Cyclopropyl-7-hydroxy-4-isobutyl-3-(3-(8-methyl-1,8-diazaspiro[4.5]decan-1-yl)-3-oxoprop-1-en-1-yl)-5-oxo-4,5-dihydropyrazolo[1,5-a]pyrimidine-6-carboxamide]",1.07 nM
2,"CCN1CCN(C(=O)/C=C/c2c(C)nn3c(O)c(C(=O)NC4CC4)c(=O)n(CC(C)C)c23)[C@H](C)C1 [Synthesis Example 751, (R,E)-N-Cyclopropyl-3-(3-(4-ethyl-2-methylpiperazin-1-yl)-3-oxoprop-1-en-1-yl)-7-hydroxy-4-isobutyl-2-methyl-5-oxo-4,5-dihydropyrazolo[1,5-a]pyrimidine-6-carboxamide]",1.34 nM
3,"CC(C)Cn1c(=O)c(C(=O)NC2CC2)c(O)n2ncc(/C=C/C(=O)N3CCCC34CCN(C(=O)OC(C)(C)C)CC4)c12 [Synthesis Example 733, Tert-butyl (E)-1-(3-(6-(cyclopropylcarbamoyl)-7-hydroxy-4-isobutyl-5-oxo-4,5-dihydropyrazolo[1,5-a]pyrimidin-3-yl)acryloyl)-1,8-diazaspiro[4.5]decane-8-carboxylate]",2.16 nM
4,"CC(C)Cn1c(=O)c(C(=O)NC2CC2)c(O)n2ncc(/C=C/C(=O)N3CCN(C4CC(F)(F)C4)C[C@H]3C)c12 [Synthesis Example 715, (R,E)-N-Cyclopropyl-3-(3-(4-(3,3-difluorocyclobutyl)-2-methylpiperazin-1-yl)-3-oxoprop-1-en-1-yl)-7-hydroxy-4-isobutyl-5-oxo-4,5-dihydropyrazolo[1,5-a]pyrimidine-6-carboxamide]",1.28 nM
5,"Cc1nn2c(O)c(C(=O)NC3CC3)c(=O)n(CC(C)C)c2c1/C=C/C(=O)N1CCc2ccncc21 [Synthesis Example 699, (E)-N-Cyclopropyl-3-(3-(2,3-dihydro-1H-pyrrolo[2,3-c]pyridin-1-yl)-3-oxoprop-1-en-1-yl)-7-hydroxy-4-isobutyl-2-methyl-5-oxo-4,5-dihydropyrazolo[1,5-a]pyrimidine-6-carboxamide]",1.47 nM
6,"Cc1nn2c(O)c(C(=O)NC3CC3)c(=O)n(CC(C)C)c2c1/C=C/C(=O)N(C)CCC#N [Synthesis Example 687, (E)-3-(3-((2-Cyanoethyl)(methyl)amino)-3-oxoprop-1-en-1-yl)-N-cyclopropyl-7-hydroxy-4-isobutyl-2-methyl-5-oxo-4,5-dihydropyrazolo[1,5-a]pyrimidine-6-carboxamide]",0.77 nM
